Results on three compounds are retold here after publication PMC12627007, “HIV nucleocapsid proteins as targets for novel 1,2-benzisothiazol-3(2H)-one benzenesulfonamides: synthesis and antiretroviral activity” (Frontiers in Microbiology, 2025).

The term CC50 denotes the concentration at which the toxic effect on the cells reaches its halfway point. Lower therefore signals harm at low concentration. As usually defined, the EC50 is the midpoint of the concentration-response curve. By IC50 is commonly meant the concentration that inhibits the measured activity by half.

Where two headings read alike, the source gives them in different places.

Data set [1] in a line: Cytotoxicity in mock-infected MT-4 cells (MTT method). Particulars: human. The format is cell-based. Put shortly: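 Mock-infected MT-4 cells (1 × 10^4 per well) incubated at 37 °C with serial concentrations of test compound, run in parallel with the HIV cytopathogenicity assay (day-4 read). Viability read by MTT method.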
A general note: Formazan colour is commonly taken as a measure of viable cells.

A short description of data set [2]: microbe, parasite or virus in culture. The format is cell-based, HIV-1. Particulars: all tested strains (HIV-1 wt, mutants, HIV-2). The method, boiled down:
(§1)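 Inhibition of virus-induced cytopathogenicity in MT-4 cells (1 × 10^4 per well) infected with wild-type IIIB or resistant mutants at m.o.i. 0.01, with serially diluted compound present from infection. Virus input was set to give complete cytopathogenicity on day 4. The EFVR mutant was selected by IIIB passage under Efavirenz.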

The next data set relates to HIV-1 IIIB strain. Nature of the data set: microbe, parasite or virus in culture. The format is cell-based. Particulars: for EC50: Human immunodeficiency virus 1, IIIB. The method, boiled down:
as §1

For a further data set, the system named is HIV-1 N119 (Y181C). Nature of the data set: Inhibition of virus-induced cytopathogenicity in MT-4 cells, NNRTI-resistant mutant N119. The format is cell-based. Conditions: for EC50: Human immunodeficiency virus 1, MT4, read-out: EC50 N119. The method, boiled down:
as §1

Data set [3] has as its system HIV-1 A17 (K103N + Y181C). Nature of the data set: Inhibition of virus-induced cytopathogenicity in MT-4 cells, NNRTI-resistant mutant A17. It is filed as cell-based. Particulars: for EC50: Human immunodeficiency virus 1, MT4, read-out: EC50 A17. The method, boiled down: as §1
Data set [4] relates to HIV-1 EFVR (K103R + V179D + P225H). Nature of the data set: Inhibition of virus-induced cytopathogenicity in MT-4 cells, NNRTI-resistant mutant EFVR. The format is cell-based. Conditions: for EC50: Human immunodeficiency virus 1, MT4, read-out: EC50 EFVR. Put shortly:
as §1

Data set [5] has as its system HIV-1 AZTR (67N, 70R, 215F, 219Q). Nature of the data set: Inhibition of virus-induced cytopathogenicity in MT-4 cells, NRTI-resistant mutant AZTR. It is filed as cell-based. Conditions: for EC50: Human immunodeficiency virus 1, MT4, read-out: EC50 AZTR. Put shortly:
as §1

Data set [6] deals with HIV-1 MDR (74V, 41L, 106A, 215Y). Nature of the data set: Inhibition of virus-induced cytopathogenicity in MT-4 cells, NRTI-resistant mutant MDR. The format is cell-based. Particulars: for EC50: Human immunodeficiency virus 1, MT4, read-out: EC50 MDR. Put shortly: as §1
For orientation: Cytopathic effects are the visible damage that an infection or toxin causes in cultured cells.

Data set [7] concerns HIV-1 SAQR (L10F, G48V, L90M). Nature of the data set: Inhibition of virus-induced cytopathogenicity in MT-4 cells, PRI-resistant mutant SAQR. The format is cell-based. Conditions: for EC50: Human immunodeficiency virus 1, MT4, read-out: EC50 SAQR. The method, boiled down:
as §1

The next data set deals with HIV-2 CBL-20 strain. Nature of the data set: Inhibition of HIV-2-induced cytopathogenicity in C8166 cells (MTT). The format is cell-based. The procedure:
HIV-1IIIB and HIV-2 CBL-20 strains were obtained from the supernatants of persistently infected H9/IIIB and CEM cells, respectively. HIV-1 and HIV-2 stock solutions had titres of 4.5 × 10^7 and 1.4 × 10^6 50% cell culture infectious doses (CCID50)/ml, respectively. […] The K103R + V179D + P225H mutant (EFVR) was derived from an IIIB strain passaged in MT-4 cells in the presence of Efavirenz (up to 2 μM). N119, A17 and EFV^R stock solutions had titres of 1.2 × 10^8, 2.1 × 10^7, and 4.0 × 10^7 CCID50/ml, respectively.
The activity of the test compounds against the replication of HIV-1 wt and mutant strains (N119, A17, EFV^R, AZT^R, MDR, SAQ^R) and HIV-2 wt in acutely infected cells was based on the inhibition of virus-induced cytopathogenicity in MT-4 and C8166 cells, respectively. Briefly, 50 μL of culture medium containing 1 × 10^4 cells was added to each well of flat-bottom microtitre trays containing 50 μL of culture medium with or without different serial concentrations of test compounds. Then, 20 μL of an HIV suspension (containing the appropriate amount of CCID50 required to cause complete cytopathogenicity on day 4, final multiplicity of infection [m.o.i.] 0.01) was added.

The target in data set [8] is T1, HIV-1 reverse transcriptase (Human immunodeficiency virus type 1 group M subtype B, UniProt P04585).
T1 construct: recombinant HIV-1 reverse transcriptase
Nature of the data set: Reverse transcriptase enzyme assay. The format is biochemical.

The target of data set [9] is T2, HIV-1 recombinant integrase (rIN) (Human immunodeficiency virus type 1 group M subtype B, UniProt P04585).
T2 construct: HIV-1 recombinant integrase (rIN); made in house
Nature of the data set: Integrase (rIN) enzyme assays: 3'-processing and strand transfer. The format is biochemical. Particulars: for IC50: recombinant HIV-1 integrase. The source says:
^aCompound concentration (µM) required to reduce the amount of 3’-end-labeled duplex of 21/19mers substrates, in 3’-processing and strand-transfer reactions catalyzed by the recombinant HIV-1 integrase, by 50%. Data represent mean values for three independent determinations.

The subject of data set [10] is chronically HIV-1-infected H9 cells / uninfected C8166 cells. Nature of the data set: Syncytium formation in chronically infected H9/C8166 cocultures (entry assay). The format is cell-based. Conditions: 36 h. Here is the method: Chronically infected H9 cells were washed and cocultured with uninfected C8166 cells (ratio 1:500) in the absence or presence of test inhibitors. Following 36 h of incubation at 37 °C, cocultures were monitored by optical microscopy, syncytia were counted, and those found in drug-treated cocultures were reported as a percentage of those counted in untreated cocultures ([Wang et al., 2004]).
In this assay, syncytia were formed as a result of the interaction of env-encoded glycoproteins (present on the outer membrane of chronically infected H9 cells) with the CD4 of cocultured C8166 cells.
Figure 3 Comparative activity of compound 6 (30 μM) and dextran sulphate (0.5 μM) in preventing syncytium formation in chronically infected H9/C8166 cocultures. The H9/C8166 ratio was […]. The cells were incubated for 36 h at 37 °C. Data represent mean values of at least three independent determinations of syncytial numbers using an optical microscope. Bars are mean values, and whiskers are standard deviations (SD) of at least three independent experiments.

A further data set has as its system HIV-1 wt. Nature of the data set: Time of addition assay in MT-4 cells. The format is cell-based. Conditions: compound 6 15 μM, EFV 0.05 μM; MT-4, m.o.i. 5. Here is the method: 2 × 10^4 MT-4 cells were infected for 1 h at 20 °C with HIV-1 at a high multiplicity of infection (m.o.i. = 5), corresponding to 5 cell culture infectious dose 50 per cell (CCID50/cell).
(§2) Titration was performed in C8166 cells using the standard limiting dilution method (dilution 1:2, four replica wells/dilution) in 96-well plates.
Virus yields were determined using the Reed–Muench method. Bars are mean values, and whiskers are standard deviations (SD) of three independent experiments.

A further data set deals with cell-free HIV-1. Nature of the data set: Virucidal activity against cell-free HIV-1 (Reed-Muench titration). It is filed as cell-based. Particulars: for Infectivity inactivation of cell-free HIV-1: 37 °C. Here is the method:
(§3) Cell-free, high-titre HIV-1 and HIV-2 stock solutions were exposed to the test compounds for 2 h at 0 °C or 37 °C. At the end of incubation, residual infectivity was determined using the Reed–Muench end-point titration method, as described below.
as §2

For another data set, the system named is cell-free HIV-2. Nature of the data set: Virucidal activity against cell-free HIV-2 (Reed-Muench titration). The format is cell-based. The procedure:
as §3, §2

[11] abbreviates: MT4, read-out: EC50 HIV-1 (Table 2).
The mark [12] stands for this setting: Human immunodeficiency virus 2, C8166, read-out: EC50 HIV-2.
The mark [13] stands for this setting: Human immunodeficiency virus 2, C8166, read-out: EC50 HIV-2 (Table 2).
[14] abbreviates: 0 °C, compound 6 80 μM, AMPH-B 100 μM.

In turn, `O=c1c2ccccc2sn1NS(=O)(=O)c1ccccc1` [Compound 6, N-(3-Oxo-1,2-benzisothiazol-2(3H)-yl)benzenesulfonamide] displayed a half-maximal cytotoxic concentration (CC50) at 4 days in data set [1] of 86 ± 4 µM. Besides, the “Selectivity Index (SI) against all tested strains” value in data set [2] is listed as “around 10”. For the same compound, the EC50 in the data set with HIV-1 IIIB strain (MT4, read-out: EC50 HIV-1) came to 8 ± 3 µM; in the data set on HIV-1 IIIB strain (setting [11]) it was 8 ± 3 µM; in the data set on HIV-1 N119 (Y181C), 7 ± 1.5 µM; in data set [3] it was 8 ± 1 µM; in data set [4], 7 ± 2 µM; in [5] it was 6 ± 0.7 µM. The EC50 in [6] was 4 ± 1.5 µM; in data set [7], 8 ± 0.7 µM; with HIV-2 CBL-20 strain (setting [12]), 7 ± 0.7 µM; in the data set on HIV-2 CBL-20 strain (setting [13]), 7 ± 0.7 µM. The “Selectivity Index (SI = CC50/EC50) HIV-1” value in the data set with HIV-1 IIIB strain (IIIB strain, in round brackets) is 10. Moreover, in the data set on HIV-1 N119 (Y181C) (in round brackets), the “Selectivity Index (SI = CC50/EC50) N119” value is 12. Besides, the “Selectivity Index (SI = CC50/EC50) A17” value in data set [3] (in round brackets) is recorded as 10. For the same compound, the “Selectivity Index (SI = CC50/EC50) EFVR” value in [4] (in round brackets) is given as 12. Also, the “Selectivity Index (SI = CC50/EC50) AZTR” value in data set [5] (in round brackets) is given as 14. Further, in data set [6] (in round brackets), the “Selectivity Index (SI = CC50/EC50) MDR” value came out at 21. The “Selectivity Index (SI = CC50/EC50) SAQR” value in data set [7] (in round brackets) was 10. In the data set with HIV-2 CBL-20 strain (in round brackets), the “Selectivity Index (SI = CC50/EC50) HIV-2” value is listed as 12. Moreover, the “Inhibition of recombinant HIV-1 RT” value in data set [8] (at concentrations of 30 μM) is “none of the benzenesulfonamides were active”. For the same compound, the IC50 in data set [8] (virion-associated RT), in data set [9] (read-out: IC50 3'-Processing) and in data set [9] (read-out: IC50 Strand-transfer) was over 30 µM throughout. Besides, the “Inhibition of recombinant HIV-1 IN” value in data set [9] (at concentrations of 30 μM) is given as “none of the benzenesulfonamides were active”. The “Interference with syncytia formation / very early events (adsorption/attachment/fusion)” value in data set [10] (30 μM) was “did not interfere”. Further, the “Infectious virus yield when compound present only during the 1-h infection period” value with HIV-1 wt is “infectious virus yield similar to that of the untreated infected controls”. Also, the “Time of addition p.i. up to which the compound still prevents virus yield” value with HIV-1 wt is recorded as “up to 12 h”. Moreover, in the data set on cell-free HIV-1 (setting [14]), the “Effect on HIV-1 infectivity, incubation at 0 °C” value is on record as “failed to affect HIV-1 infectivity”. Moreover, the “Infectivity inactivation of cell-free HIV-1” value is reported as “only marginal or no effects” with cell-free HIV-1 (25 and 12.5 μM); “strongly inactivated the infectivity” in the data set with cell-free HIV-1 (100 and 50 μM). In the data set with cell-free HIV-1 (2 h at 37 °C, compound 6 80 μM, AMPH-B 100 μM), the “Inactivation of HIV-1 infectivity” value is “more than 3 log10”. The “Effect on HIV-2 infectivity, incubation at 0 °C” value in the data set on cell-free HIV-2 (setting [14]) is listed as “failed to significantly affect HIV-2 infectivity”. The “Infectivity inactivation of cell-free HIV-2” value was “only marginal or no effects” in the data set with cell-free HIV-2 (25 and 12.5 μM, 37 °C); “strongly inactivated the infectivity” with cell-free HIV-2 (100 and 50 μM, 37 °C). In the data set on cell-free HIV-2 (37 °C, compound 6 80 μM, AMPH-B 100 μM), the “Inactivation of HIV-2 virion infectivity” value was “approximately 2 log10”.
In [1] (MT-4, MTT method), `O=C1Nc2ccc(Cl)cc2[C@@](C#CC2CC2)(C(F)(F)F)O1` [EFV, efavirenz, reference compound] registered a CC50 at 4 days of 30 ± 5 µM. Further, the EC50 in the data set with HIV-1 IIIB strain (MT4, read-out: EC50 HIV-1) stood at 0.002 ± 0.0003 µM; in the data set with HIV-1 IIIB strain (setting [11]), 0.002 ± 0.0003 µM; in the data set with HIV-1 N119 (Y181C), 0.008 ± 0.003 µM; in [3], 0.3 ± 0.009 µM; in [4], 3 ± 1 µM; in data set [5] it was 0.002 ± 0.0003 µM. Also, the EC50 is 0.004 µM in [6], 0.007 ± 0.005 µM in data set [7], over 20 µM in the data set on HIV-2 CBL-20 strain (setting [12]) and over 20 µM in the data set on HIV-2 CBL-20 strain (setting [13]). In addition, in the data set on HIV-1 wt, the “Infectious virus yield when compound present only during the 1-h infection period” value is reported as “infectious virus yield similar to that of the untreated infected controls”. For the same compound, the “Time of addition p.i. up to which the compound still prevents virus yield” value in the data set with HIV-1 wt is on record as at most 4 h.
With dextran sulphate [reference compound], the “Prevention of syncytia formation” value in [10] (0.5 μM) amounted to 98%.
